Assay results from the supplement of paper PMC10307832.

Experiments:
Experiment in all cases: relative viability (nuclei count vs DMSO), 5 days (fraction); higher = more cells survive
[1] = compound: C=CC(=O)N1CCC[C@@H](n2nc(-c3ccc(Oc4ccccc4)cc3)c3c(N)ncnc32)C1 [Ibrutinib] + Cc1nc(Nc2ncc(C(=O)Nc3c(C)cccc3Cl)s2)cc(N2CCN(CCO)CC2)n1 [Dasatinib] (partner 0.075 µM)
Summary of the method: (§1)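 Dosing by pin tool came one day after lung cancer cell lines were seeded in 1536-well plates, using either one drug or a fixed anchor-drug dose plus five library-drug doses (not always all listed) in √10 steps. After 5 days, nuclei were counted on 4× images. Relative viability is treated-well nuclei count divided by vehicle-well nuclei count, and values are medians of duplicate plates.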

[2] = compound: C=CC(=O)Nc1cc(-n2c(=O)ccc3cnc4ccc(-c5ccc(NS(C)(=O)=O)cc5)cc4c32)ccc1C [BMX-IN-1] + CS(=O)(=O)N1CCN(Cc2cc3nc(-c4cccc5[nH]ncc45)nc(N4CCOCC4)c3s2)CC1 [Pictilisib] (partner 1 µM)
Summary of the method: as §1

[3] = compound: C=CC(=O)Nc1cc(-n2c(=O)ccc3cnc4ccc(-c5ccc(NS(C)(=O)=O)cc5)cc4c32)ccc1C [BMX-IN-1] + NC(=O)Nc1cc(-c2cccc(F)c2)sc1C(=O)N[C@H]1CCCNC1 [AZD7762] (partner 0.2 µM)
Summary of the method: as §1

[4] = compound: C=CC(=O)Nc1cc(-n2c(=O)ccc3cnc4ccc(-c5ccc(NS(C)(=O)=O)cc5)cc4c32)ccc1C [BMX-IN-1] + COc1cccc2cc(-c3nc([C@H]4CC[C@H](C(=O)O)CC4)n4ncnc(N)c34)[nH]c12 [OSI-027] (partner 0.5 µM)
Summary of the method: as §1

Cell Line	relative viability ([1]; first compound 0.005 µM)	relative viability ([1]; first compound 0.01581 µM)	relative viability ([1]; first compound 0.05 µM)	relative viability ([1]; first compound 0.1581 µM)	relative viability ([1]; first compound 0.5 µM)	relative viability ([2]; first compound 0.02 µM)	relative viability ([2]; first compound 0.2 µM)	relative viability ([2]; first compound 0.6325 µM)	relative viability ([2]; first compound 2 µM)	relative viability ([3]; first compound 0.02 µM)	relative viability ([3]; first compound 0.2 µM)	relative viability ([3]; first compound 0.6325 µM)	relative viability ([3]; first compound 2 µM)	relative viability ([4]; first compound 0.02 µM)	relative viability ([4]; first compound 0.2 µM)	relative viability ([4]; first compound 0.6325 µM)	relative viability ([4]; first compound 2 µM)
NCI-H1395	0.419	0.401	0.383	0.392	0.417	0.82	1.02	0.701	0.61	0.4	0.407	0.434	0.376	0.645	0.64	0.647	0.637
NCI-H1437	0.313	0.39	0.375	0.217	0.362	0.455	0.391	0.425	0.462	1.26	1.26	1.11	1.11	1.05	0.912	0.916	0.845
ChaGo-K-1	0.599	0.479	0.553	0.485	0.587	0.66	0.64	0.858	0.614	1.02	1.02	0.885	0.907	0.731	0.635	0.624	0.786
NCI-H1755	0.478	0.365	0.444	0.484	0.383	0.446	0.541	0.498	0.423	0.543	0.491	0.453	0.466	0.685	0.787	0.765	0.721
HOP-62	0.664	0.517	0.708	0.563	0.648	0.639	0.761	0.929	0.688	0.606	0.627	0.724	0.65	1.01	1.16	1.03	0.817
PC-14	–	0.228	0.209	0.312	0.0569	0.952	0.85	0.774	0.851	0.404	0.459	0.408	0.312	1.46	1.19	0.994	0.0726
EMC-BAC-2	0.314	0.316	0.346	0.343	0.296	0.556	0.562	0.621	0.506	1.32	1.31	1.1	1.14	0.363	0.363	0.421	0.403
NCI-H2170	0.464	0.413	0.209	0.447	0.211	0.319	0.312	0.319	0.307	0.945	0.98	1.03	0.928	0.735	0.803	0.79	0.769
A-427	0.625	0.677	0.769	0.666	0.655	0.796	0.83	0.948	0.78	0.796	1.14	0.84	0.806	0.448	0.417	0.501	0.461
